The values below come from ChEMBL document CHEMBL1134772, “Synthesis and evaluation of hydroxylated polyamine analogues as antiproliferatives” (J Med Chem, 2001).

The IC50 is the midpoint of a concentration-inhibition curve. Higher therefore signals weaker potency in that assay. The Ki is the equilibrium dissociation constant of an inhibitor or competing ligand from its target. A higher Ki goes with a looser hold on the target.

Assay [1] in a line: Number of CD-1 mice died in a 5-day course after administration of 300 mg/kg dose of compound; 0/5. Type of assay: functional, Mus musculus.
Assay [2] can be described thus: Number of CD-1 mice died after administration of 100 mg/kg dose of compound; 0/5. Type of assay: functional, Mus musculus.
The test system of assay [3] is L1210. The assay is described as follows: Effect of compound on the level of putrescine in polyamine pools of L1210 cells after 48 hr of treatment with 4 uM compound dose. Type of assay: functional, Mus musculus.
Assay [4] relates to L1210. The assay is described as follows: Inhibitory concentration of compound against the growth of the L1210 cell line at 96 hr. Type of assay: functional, cell-based. To be noted: Mus musculus, L1210, 96 h.
Assay [5] has as its system L1210. The assay is described as follows: Percent of S-adenosyl-methionine decarboxylase enzyme activity in L1210 cells after 6 hr of treatment with 1 uM dose of compound. Type of assay: cell-based.
Assay [6] can be described thus: Number of CD-1 mice died in a 5-day course after administration of 200 mg/kg dose of compound; 0/5. Type of assay: functional, Mus musculus.
The test system of assay [7] is L1210. The assay can be described thus: Inhibitory concentration of compound against the growth of the L1210 cell line at 48 hr. Type of assay: functional, cell-based. To be noted: Mus musculus, L1210, 48 h.
Assay [8] deals with T1, Ornithine decarboxylase (Mus musculus) (UniProt P00860).
T1 sequence (whole entry): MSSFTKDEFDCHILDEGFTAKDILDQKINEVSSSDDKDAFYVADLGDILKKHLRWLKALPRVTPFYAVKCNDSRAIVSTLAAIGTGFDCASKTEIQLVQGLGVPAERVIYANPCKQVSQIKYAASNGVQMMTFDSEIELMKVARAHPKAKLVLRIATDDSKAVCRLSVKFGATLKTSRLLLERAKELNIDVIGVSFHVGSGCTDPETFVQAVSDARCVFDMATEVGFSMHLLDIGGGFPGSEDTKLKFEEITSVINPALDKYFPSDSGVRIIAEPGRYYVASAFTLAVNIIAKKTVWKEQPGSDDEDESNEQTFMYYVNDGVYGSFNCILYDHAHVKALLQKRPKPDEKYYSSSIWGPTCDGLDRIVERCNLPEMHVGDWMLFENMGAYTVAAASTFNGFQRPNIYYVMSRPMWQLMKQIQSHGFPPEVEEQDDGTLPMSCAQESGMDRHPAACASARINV
The assay can be described thus: Percent of ornithine decarboxylase enzyme activity in L1210 cells after 4 hr of treatment with 1 uM dose of compound. Type of assay: cell-based.

Assay [9] deals with L1210. The assay is described as follows: Effect of compound on the level of spermidine in polyamine pools of L1210 cells after 48 hr of treatment with 20 uM compound dose. Type of assay: functional, Mus musculus.
The test system of assay [10] is L1210. The assay can be described thus: Effect of compound on the level of spermine in polyamine pools of L1210 cells after 48 hr of treatment with 4 uM compound dose. Type of assay: functional, Mus musculus.
Assay [11] can be described thus: Number of CD-1 mice died after administration of 400 mg/kg dose of compound; 0/5. Type of assay: functional, Mus musculus.
Assay [12] concerns L1210. The assay is described as follows: Inhibition of transport of [3H]-spermidine by L1210 cells. Type of assay: functional, cell-based, Mus musculus.
In assay [13] the test system is L1210. The assay can be described thus: Effect of compound on the level of putrescine in polyamine pools of L1210 cells after 48 hr of treatment with 20 uM compound dose. Type of assay: functional, Mus musculus.
Assay [14] concerns L1210. The assay is described as follows: Amount of compound present per 10e6 L1210 cells after 48 hr of treatment with 4 uM of it. Type of assay: functional, cell-based. The note with it: Mus musculus.
In assay [15] the target is T2, Spermidine/spermine N(1)-acetyltransferase (SAT) (Mus musculus) (UniProt Q6P8J2+P48026). The assay can be described thus: Percent of Spermidine/spermine-N1- acetyltransferase enzyme activity in L1210 cells after 48 hr of treatment with 10 uM dose of compound. Type of assay: cell-based.
T2 sequence (P48026 whole entry, looked up): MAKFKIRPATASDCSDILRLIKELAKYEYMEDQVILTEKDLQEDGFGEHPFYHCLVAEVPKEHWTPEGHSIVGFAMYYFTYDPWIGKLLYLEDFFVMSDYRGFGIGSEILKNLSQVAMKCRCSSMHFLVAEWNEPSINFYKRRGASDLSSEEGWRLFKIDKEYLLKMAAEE
T2 sequence (Q6P8J2 whole entry, looked up): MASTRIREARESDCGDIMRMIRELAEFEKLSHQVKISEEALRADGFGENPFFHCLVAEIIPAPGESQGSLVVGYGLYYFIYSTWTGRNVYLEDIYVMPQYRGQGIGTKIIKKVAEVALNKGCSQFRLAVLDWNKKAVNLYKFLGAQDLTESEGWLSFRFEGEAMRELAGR
For assay [16], the system named is L1210. The assay can be described thus: Effect of compound on the level of spermine in polyamine pools of L1210 cells after 48 hr of treatment with 20 uM compound dose. Type of assay: functional, Mus musculus.
Assay [17] in a line: Number of CD-1 mice died after administration of 200 mg/kg dose of compound; 0/5. Type of assay: functional, Mus musculus.
In assay [18] the test system is L1210. The assay can be described thus: Amount of compound present per 10e6 L1210 cells after 48 hr of treatment with 20 uM of it. Type of assay: functional, cell-based. To be noted: Mus musculus.
For assay [19], the system named is L1210. The assay is described as follows: Effect of compound on the level of spermidine in polyamine pools of L1210 cells after 48 hr of treatment with 4 uM compound dose. Type of assay: functional, Mus musculus.
A short description of assay [20]: Number of CD-1 mice died in a 5-day course after administration of 100 mg/kg dose of compound; 0/5. Type of assay: functional, Mus musculus.
Assay [21] deals with T1, Ornithine decarboxylase (Mus musculus). The assay can be described thus: Percent of ornithine decarboxylase enzyme activity in L1210 cells after 4 hr of treatment with 1 uM of dose. Type of assay: cell-based.
Assay [22] deals with L1210. The assay is described as follows: Effect of compound on the level of spermine in polyamine pools of L1210 cells after 48 hr of treatment with 20 uM of dose. Type of assay: functional, Mus musculus.
A short description of assay [23]: Number of CD-1 mice died after administration of 200 mg/kg dose of compound; 5/5. Type of assay: functional, Mus musculus.
A short description of assay [24]: Number of CD-1 mice died in a 5-day course after administration of 50 mg/kg dose of compound; 0/7. Type of assay: functional, Mus musculus.
The nature of assay [25]: Number of CD-1 mice died in a 5-day course after administration of 25 mg/kg dose of compound; 0/7. Type of assay: functional, Mus musculus.
Assay [26] has as its system L1210. The assay can be described thus: Amount of compound present per 10e6 L1210 cells after 48 hr of treatment with 20 uM of dose. Type of assay: functional, cell-based. To be noted: Mus musculus.
For assay [27], the system named is L1210. The assay can be described thus: Effect of compound on the level of spermine in polyamine pools of L1210 cells after 48 hr of treatment with 100 uM of dose. Type of assay: functional, Mus musculus.
Assay [28] deals with L1210. The assay is described as follows: Effect of compound on the level of putrescine in polyamine pools of L1210 cells after 48 hr of treatment with 100 uM of dose. Type of assay: functional, Mus musculus.
In assay [29] the test system is L1210. The assay can be described thus: Effect of compound on the level of spermidine in polyamine pools of L1210 cells after 48 hr of treatment with 100 uM of dose. Type of assay: functional, Mus musculus.
Assay [30] is described as follows: Number of CD-1 mice died in a 5-day course after administration of 10 mg/kg dose of compound; 0/7. Type of assay: functional, Mus musculus.
The nature of assay [31]: Number of CD-1 mice died in a 5-day course after administration of 75 mg/kg dose of compound; 0/5. Type of assay: functional, Mus musculus.
The nature of assay [32]: Number of CD-1 mice died after administration of 100 mg/kg dose of compound; 1/5. Type of assay: functional, Mus musculus.
Assay [33] relates to L1210. The assay is described as follows: Inhibition of transport of [3H]spermidine in L1210 cells. Type of assay: functional, cell-based, Mus musculus.
The test system of assay [34] is L1210. The assay can be described thus: Effect of compound on the level of putrescine in polyamine pools of L1210 cells after 48 hr of treatment with 20 uM of dose. Type of assay: functional, Mus musculus.
The subject of assay [35] is L1210. The assay is described as follows: Amount of compound present per 10e6 L1210 cells after 48 hr of treatment with 100 uM of dose. Type of assay: functional, cell-based. The note with it: Mus musculus.
Assay [36] relates to L1210. The assay is described as follows: Percent of S-adenosyl-methionine decarboxylase enzyme activity in L1210 cells after 6 hr of treatment with 1 uM of dose. Type of assay: cell-based.
Assay [37] addresses T2, Spermidine/spermine N(1)-acetyltransferase (SAT) (Mus musculus). The assay is described as follows: Percent of Spermidine/spermine-N1- acetyltransferase enzyme activity in L1210 cells after 48 hr of treatment with 10 uM of dose. Type of assay: cell-based.
For assay [38], the system named is L1210. The assay is described as follows: Effect of compound on the level of spermidine in polyamine pools of L1210 cells after 48 hr of treatment with 20 uM of dose. Type of assay: functional, Mus musculus.
The nature of assay [39]: Number of CD-1 mice died after administration of 325 mg/kg dose of compound; 5/10. Type of assay: functional, Mus musculus.
In assay [40] the test system is L1210. The assay can be described thus: Amount of compound present per 10e6 L1210 cells after 48 hr of treatment with 10 uM of dose. Type of assay: functional, cell-based. To be noted: Mus musculus.
For assay [41], the system named is L1210. The assay is described as follows: Effect of compound on the level of putrescine in polyamine pools of L1210 cells after 48 hr of treatment with 10 uM of dose. Type of assay: functional, Mus musculus.
Assay [42] is described as follows: Number of CD-1 mice died in a 6-day course after administration of 200 mg/kg dose of compound; 10/12. Type of assay: functional, Mus musculus.
In assay [43] the test system is L1210. The assay is described as follows: Effect of compound on the level of spermidine in polyamine pools of L1210 cells after 48 hr of treatment with 10 uM of dose. Type of assay: functional, Mus musculus.
Assay [44] relates to L1210. The assay can be described thus: Effect of compound on the level of spermine in polyamine pools of L1210 cells after 48 hr of treatment with 10 uM of dose. Type of assay: functional, Mus musculus.

Consider `CCNC[C@H](O)CNCCCNC[C@@H](O)CNCC1CC1`, for which the “No. of deaths/mice injected” value in [1], in assay [2], in assay [6], in assay [11], in assay [17] and in assay [20] was 0 throughout. The Control worked out at 43% in the assay on L1210 [3]; 59% in the assay with L1210 [5]; 37% in [8]; 32% in the assay with L1210 [9]; 119% in the assay on L1210 [10]; 20% in the assay with L1210 [13]. Also, the Control stood at 2500% in assay [15], 123% in the assay with L1210 [16] and 48% in the assay with L1210 [19]. For the same compound, the IC50 with L1210 [4] worked out at 0.97 µM; in the assay on L1210 [7], 4.5 µM. This compound came in with a Ki in the assay on L1210 [12] of 40 µM. Also, the Amount (nmol/10^6 cells) came out at 1.94 with L1210 [14] and 3.05 with L1210 [18].

On to `CCNC[C@@H](O)CNCCCNC[C@H](O)CNCC`, for which the Control in assay [21] was determined as 35%.

The compound `CCNC[C@H](O)CNCCCNC[C@@H](O)CNCC` yielded a Control in assay [21] of 61%.

As for `CCNCCCNCCCNCCCNCC1CC1`, the Control was determined as 66% in the assay with L1210 [22]; 56% with L1210 [27]; 13% in the assay with L1210 [28]; 16% in the assay on L1210 [29]; 22% in the assay on L1210 [34]; 48% with L1210 [36]. Besides, the results for the Control (in assay [37]; in the assay with L1210 [38]; in [21]) were 3260%, 25% and 26%, respectively. Besides, the “No. of deaths/mice injected” value in [23] stood at 5; in assay [24] it was 0; in [25] it was 0; in assay [30] it was 0; in [31] it was 0; in assay [32], 1. The “No. of deaths/mice injected” value in assay [20] is listed as 0. Besides, the IC50 in the assay on L1210 [4] is 0.55 µM; with L1210 [7], 16 µM. Also, the Concentration was determined as 2.17 nM with L1210 [26] and 2.59 nM in the assay with L1210 [35]. The compound further yielded a Ki in the assay on L1210 [33] of 13 µM.

As for `CCNCCCNCCCNCCCNCC` [BIS(ETHYL)NORSPERMINE], the “No. of deaths/mice injected” value in assay [39] is 5; in assay [42], 10. The Control in the assay on L1210 [27] came to 30%; in the assay on L1210 [28], 0%; with L1210 [29], 6%; with L1210 [41], 30%; in the assay with L1210 [36], 42%; in the assay with L1210 [43], 14%. The Control in [37] is 3880%; in assay [21], 7%; in the assay on L1210 [44], 31%. Moreover, the Concentration in the assay with L1210 [40] worked out at 1.59 nM; in the assay on L1210 [35] it was 2.44 nM. In the assay with L1210 [33], affinity was put at a Ki of 7 µM.
